In article PMC9221018, “Sulfonamide-Derived Dithiocarbamate Gold(I) Complexes Induce the Apoptosis of Colon Cancer Cells by the Activation of Caspase 3 and Redox Imbalance” (Biomedicines, 2022):

Assays:
[1] = n-octanol-water distribution coefficient, shake-flask method; assay type: physicochemical; settings: n-octanol/buffered saline pH 7.4, shake-flask
Procedure: The n-octanol−water coefficients of the complexes were determined using a shake-flask method, as reported previously. Briefly, 100 mL buffered-saline (0.15 M NaCl, 10 mM phosphate [PO4^3−] buffer, pH 7.4) and 100 mL n-octanol were shaken for 72 h. The addition of 1 mg of the complexes followed by the centrifugation and separation of both phases gave two solutions, which were analysed by UV absorbance spectroscopy to determine their concentration in each phase. The corresponding value of log P was defined as log{[compound(organic)]/[compound(aqueous)]}.

Caco-2 cells [2] = test: Intracellular ROS levels, dichlorofluorescein assay; assay type: cell-based, human; settings: Caco-2, different concentrations, 1, 3 and 24 h
Procedure: After the Caco-2 cells were seeded in a 96-well plate at a density of 4 × 10^3 cells/well, the intracellular ROS levels were determined with a dichlorofluorescein assay, following the protocol used by Quero et al.. The cells were exposed to the drug panel for 1, 3 and 24 h, and then incubated with 20 µM 2′-7′-dichlorofluorescein diacetate (DCFH-DA) (Merck KGaA, Darmstadt, Germany) in DMEM. The generation of oxidized derivative DCF was monitored by measuring the increase of the fluorescence for 1 h, at an emission wavelength of 520 nm and an excitation of 485 nm, using a FLUOstar Omega (BMG Labtech, Ortenberg, Germany) multiplate reader. The results were expressed as percentage of the fluorescence with respect to the control, considering the fluorescence intensity as a reflection of the intracellular ROS levels.

[3] = target: T1, recombinant human enzyme TrxR1 (Homo sapiens, UniProt Q16881); test: Thioredoxin reductase 1 (TrxR1) activity assay (DTNB); assay type: biochemical; settings: recombinant TrxR1, complexes at their IC50 values (1 1.14 μM, 8 7.22 μM), 5 min incubation
T1 construct: purchased Sigma SRP 6081
T1 sequence (Q16881 161-647 limits assumed): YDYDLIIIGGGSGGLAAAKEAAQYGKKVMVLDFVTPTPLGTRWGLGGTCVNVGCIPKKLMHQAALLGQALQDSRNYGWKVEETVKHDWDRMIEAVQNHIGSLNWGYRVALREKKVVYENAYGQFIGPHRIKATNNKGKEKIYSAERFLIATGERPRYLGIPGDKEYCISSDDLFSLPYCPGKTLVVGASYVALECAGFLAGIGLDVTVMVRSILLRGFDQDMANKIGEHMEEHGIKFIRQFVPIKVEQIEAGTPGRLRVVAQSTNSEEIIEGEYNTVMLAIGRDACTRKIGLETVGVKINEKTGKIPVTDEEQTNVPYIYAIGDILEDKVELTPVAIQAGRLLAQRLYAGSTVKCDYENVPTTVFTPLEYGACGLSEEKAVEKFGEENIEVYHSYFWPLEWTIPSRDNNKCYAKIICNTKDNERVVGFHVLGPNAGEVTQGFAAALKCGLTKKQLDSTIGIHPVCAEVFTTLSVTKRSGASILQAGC
Procedure: The in vitro interaction of metal complexes with the enzyme thioredoxin reductase was analyzed using a thioredoxin reductase assay kit (Sigma, CS0170, St Louis, MO, USA). The procedure instructions in the kit were followed, though the rat liver thioredoxin reductase was replaced with recombinant human enzyme TrxR1 (SRP 6081, Sigma, St Louis, MO, USA). The reaction was initiated by adding DTNB (100 mM), and conversion to TNB^− was monitored at 412 nm every 30 s for 22 min using a SPECTROstar Nano (BMG Labtech, Ortenberg, Germany) multiplate reader. The results were expressed as a percentage of the TrxR activity with respect to the control.

Caco-2 cells [4] = test: Mitochondrial membrane potential assay (DilC1); assay type: cell-based, human; settings: complex 1 1.14 µM 48 h, complex 8 7.22 µM 72 h
Procedure: Caco-2 cells were seeded in 75 cm^2 flasks at a density of 1 × 10^4 cells/cm^2, and the 24-h post-seeding medium was replaced with medium containing the drug panel; it was then incubated for 48 or 72 h. The cells were then washed twice and resuspended in PBS at a concentration of 10^6 cells/mL before incubation with 5 µL of 10 µM 1,1′,3,3,3′-hexamethylindodicarbo-cyanine iodide (DilC1). After 15 min of incubation at 37 °C, 400 µL PBS was added, and the fluorescence was measured by flow cytometry at an excitation wavelength of 633 nm and an emission of 658 nm with a Beckman Coulter Gallios (Brea, CA, USA) equipped with a blue solid diode laser (488 nm) and a red solid diode laser (635 nm).

caspase-3 = test: Determination of active caspase 3 by flow cytometry; assay type: cell-based, human; settings: Caco-2; complex 1 1.14 µM 48 h, complex 8 7.22 µM 72 h
Procedure: Caco-2 cells were seeded in a 75 cm^2 flask at a density of 1 × 10^4 cells/cm^2; 24 h later, they were exposed to the drug panel for 48 or 72 h. Then, the cells were collected and processed as previously described. Finally, 50 µL of every sample was incubated with 5 µL anti-active caspase-3 (BD Pharmigen, San Diego, CA, USA, Clone C92-605) and 5 µL p53 antibody (Miltenyi, Auburn, CA, USA, Clone REA609). The fluorescence was measured by flow cytometry using a Beckman Coulter Gallios (Brea, CA, USA) equipped with a blue solid diode laser (488 nm) and a red solid diode laser (635 nm). For the caspase-3 determination, the excitation wavelength was set at 488 nm and the emission was set at 525 nm; for the p53 analysis, the excitation was set at 635 nm and the emission was set at 660 nm.

Caco-2 cells [5] = test: Apoptosis measurement, annexin V-FITC/PI flow cytometry; assay type: cell-based, human; settings: complex 1 1.14 µM 48 h, complex 8 7.22 µM 72 h
Procedure: Caco-2 cells were seeded in 75 cm^2 flasks at a density of 1 × 10^4 cells/cm^2, then exposed to the drug panel for 48 or 72 h depending on the compound tested, and them stained with annexin V-FITC and sodium iodide propidio according to the manufacturer’s instructions. The cells were then transferred to flow cytometry tubes and washed twice with phosphate-buffered saline (PBS); they were then resuspended in 100 µL annexing V binding buffer (100 mM Hepes/NaOH pH 7.4, […], 2.5 mM CaCl2). In total, 5 µL annexin V-FITC and 5 µL propidium iodide (PI) were added to the tube. After 15 min of incubation at room temperature protected from light, 400 µL annexin binding buffer was added to each sample, and the signal intensity was analyzed within 1 h with Beckman Coulter Gallios (Brea, CA, USA). The data were analyzed with BD FACSDivaTM [59].

Compound	Log P7.4 [1]	intracellular ROS levels (Caco-2 cells [2])	decrease in TrxR activity [3]	mitochondrial depolarization (cells with disturbed MMP) (Caco-2 cells [4])	percentage of cells with active caspase-3 (caspase-3)	induction of apoptosis (annexin V/PI) (Caco-2 cells [5])
O=S(=O)(NC(=S)[S][Au][PH](c1ccccc1)(c1ccccc1)c1ccccc1)c1ccccc1 [Complex 1, [Au(S2CNHSO2C6H5)(PPh3)]]	0.75	time- and concentration-dependent pro-oxidant effect	around 80%	induced similar mitochondrial depolarization	increased the percentage of cells with active caspase-3	capable of inducing apoptosis
[Au(S2CNHSO2-p-Me-C6H4)(IMePropargyl)] [Complex 8]	−0.13	time- and concentration-dependent pro-oxidant effect	around 80%	induced similar mitochondrial depolarization	increased the percentage of cells with active caspase-3	capable of inducing apoptosis
